{"source": "patent US20230149401A1", "about": "(priority 2020, published 2023)", "tested_on": "HIV particles pseudotyped with SARS-CoV-2 S", "type": "cell-based", "data": [{"smiles": "CCN(CC)CCCC(C)Nc1ccnc2cc(Cl)ccc12", "note": "(stereo not shown) [chloroquine, reference compound]", "values": [{"measurement": "Entry of pseudotyped SARS-CoV-2 and its μS1/S2 mutant", "result": "efficiently blocked entry"}]}]}
